Where “and” joins values, the source holds several entries; their conditions need not be identical. Identical values can stand only once. Like-named read-outs stand apart in the source and are kept apart here.
Key:
E. coli AG100tet = experiment: EtBr efflux by real-time fluorometry; details: 80 µM
[1] = system: E. coli AG100tet (AcrAB overexpressing); experiment: MIC, broth microdilution; assay type: cell-based, Escherichia coli; details: Escherichia coli
E. coli AG100 = experiment: EtBr accumulation by real-time fluorometry; details: EtBr 1 µg/ml + inhibitor 80 µM
E. coli AG100A = experiment: microbe, parasite or virus in culture; assay type: cell-based, Escherichia coli; details: for MIC: Escherichia coli, AG100A
Description: The minimum inhibitory concentrations (MICs) were determined using the broth microdilution method according to the CLSI guidelines ([Clinical and Laboratory Standards Institute, 2014]). […] Two-fold serial dilutions of the compounds were made to achieve the following concentrations: 320 µM–40 µM. The MICs were determined as the lowest concentration at which no visible growth was observed after 18 h of incubation at 37 °C. The assays were performed in triplicate and the MIC value was given as result of at least two concordant values.

## CN(C)CCCN1c2ccccc2Sc2ccc(Cl)cc21 [CPZ, chlorpromazine]
E. coli AG100tet; cycle 37, without glucose
  Fluorescence raw data, Channel Cycling A.530/585hp: 9.488
E. coli AG100tet; cycle 38, + glucose
  Fluorescence raw data, Channel Cycling A.530/585hp: 6.976
E. coli AG100tet; cycle 38, without glucose
  Fluorescence raw data, Channel Cycling A.530/585hp: 9.581
E. coli AG100tet; cycle 39, + glucose
  Fluorescence raw data, Channel Cycling A.530/585hp: 6.681
E. coli AG100tet; cycle 39, without glucose
  Fluorescence raw data, Channel Cycling A.530/585hp: 9.571
E. coli AG100tet; cycle 40, + glucose
  Fluorescence raw data, Channel Cycling A.530/585hp: 6.952
E. coli AG100tet; cycle 40, without glucose
  Fluorescence raw data, Channel Cycling A.530/585hp: 9.707
E. coli AG100tet; cycle 41, + glucose
  Fluorescence raw data, Channel Cycling A.530/585hp: 6.766
E. coli AG100tet; cycle 41, without glucose
  Fluorescence raw data, Channel Cycling A.530/585hp: 9.731
E. coli AG100tet; cycle 42, + glucose
  Fluorescence raw data, Channel Cycling A.530/585hp: 6.916
E. coli AG100tet; cycle 42, without glucose
  Fluorescence raw data, Channel Cycling A.530/585hp: 9.718
E. coli AG100tet; cycle 43, + glucose
  Fluorescence raw data, Channel Cycling A.530/585hp: 6.844
E. coli AG100tet; cycle 43, without glucose
  Fluorescence raw data, Channel Cycling A.530/585hp: 9.8689
E. coli AG100tet; cycle 44, + glucose
  Fluorescence raw data, Channel Cycling A.530/585hp: 6.82
E. coli AG100tet; cycle 44, without glucose
  Fluorescence raw data, Channel Cycling A.530/585hp: 9.768
E. coli AG100tet; cycle 45, without glucose
  Fluorescence raw data, Channel Cycling A.530/585hp: 9.807
E. coli AG100tet; cycle 46, without glucose
  Fluorescence raw data, Channel Cycling A.530/585hp: 9.797
E. coli AG100tet; cycle 47, without glucose
  Fluorescence raw data, Channel Cycling A.530/585hp: 9.663
E. coli AG100tet; cycle 48, without glucose
  Fluorescence raw data, Channel Cycling A.530/585hp: 9.794
E. coli AG100tet; cycle 49, without glucose
  Fluorescence raw data, Channel Cycling A.530/585hp: 9.745
E. coli AG100tet; cycle 50, without glucose
  Fluorescence raw data, Channel Cycling A.530/585hp: 9.769
E. coli AG100tet; cycle 51, without glucose
  Fluorescence raw data, Channel Cycling A.530/585hp: 9.982
E. coli AG100tet; cycle 52, without glucose
  Fluorescence raw data, Channel Cycling A.530/585hp: 9.725
E. coli AG100tet; cycle 53, without glucose
  Fluorescence raw data, Channel Cycling A.530/585hp: 9.758
E. coli AG100tet; cycle 54, without glucose
  Fluorescence raw data, Channel Cycling A.530/585hp: 9.768
E. coli AG100tet; cycle 55, without glucose
  Fluorescence raw data, Channel Cycling A.530/585hp: 9.755
E. coli AG100tet; cycle 56, without glucose
  Fluorescence raw data, Channel Cycling A.530/585hp: 9.766
E. coli AG100tet; cycle 57, without glucose
  Fluorescence raw data, Channel Cycling A.530/585hp: 9.676
E. coli AG100tet; cycle 58, without glucose
  Fluorescence raw data, Channel Cycling A.530/585hp: 9.567
E. coli AG100tet; cycle 59, without glucose
  Fluorescence raw data, Channel Cycling A.530/585hp: 9.679
E. coli AG100tet; cycle 60, without glucose
  Fluorescence raw data, Channel Cycling A.530/585hp: 9.626
E. coli AG100tet; cycle 61, without glucose
  Fluorescence raw data, Channel Cycling A.530/585hp: 9.5963
[1]
  MIC: 280 µg/mL and 788 µM
E. coli AG100; cycle 1
  EtBr fluorescence: 6.13
E. coli AG100; cycle 2
  EtBr fluorescence: 8.192
E. coli AG100; cycle 3
  EtBr fluorescence: 10.0781
E. coli AG100; cycle 4
  EtBr fluorescence: 12.1665
E. coli AG100; cycle 5
  EtBr fluorescence: 14.1022
E. coli AG100; cycle 6
  EtBr fluorescence: 16.1694
E. coli AG100; cycle 7
  EtBr fluorescence: 18.3713
E. coli AG100; cycle 8
  EtBr fluorescence: 20.6676
E. coli AG100; cycle 9
  EtBr fluorescence: 22.7314
E. coli AG100; cycle 10
  EtBr fluorescence: 24.8681
E. coli AG100; cycle 11
  EtBr fluorescence: 27.4474
E. coli AG100; cycle 12
  EtBr fluorescence: 29.5933
E. coli AG100; cycle 13
  EtBr fluorescence: 31.7973
E. coli AG100; cycle 14
  EtBr fluorescence: 34.5154
E. coli AG100; cycle 15
  EtBr fluorescence: 36.8928
E. coli AG100; cycle 16
  EtBr fluorescence: 39.2786
E. coli AG100; cycle 17
  EtBr fluorescence: 41.9426
E. coli AG100; cycle 18
  EtBr fluorescence: 44.0663
E. coli AG100; cycle 19
  EtBr fluorescence: 46.4485
E. coli AG100; cycle 20
  EtBr fluorescence: 49.5818
E. coli AG100; cycle 21
  EtBr fluorescence: 51.5786
E. coli AG100; cycle 22
  EtBr fluorescence: 54.5618
E. coli AG100; cycle 23
  EtBr fluorescence: 56.7461
E. coli AG100; cycle 24
  EtBr fluorescence: 59.3586
E. coli AG100; cycle 25
  EtBr fluorescence: 62.2682
E. coli AG100; cycle 26
  EtBr fluorescence: 64.3897
E. coli AG100; cycle 27
  EtBr fluorescence: 67.0371
E. coli AG100; cycle 28
  EtBr fluorescence: 69.6952
E. coli AG100; cycle 29
  EtBr fluorescence: 72.3896
E. coli AG100; cycle 30
  EtBr fluorescence: 75.3315
E. coli AG100A; AG100A (pump-deficient strain)
  reduction in TET MIC: 4 fold
E. coli AG100A; read-out: MIC of EtBr in presence of the efflux inhibitor
  MIC: 0.39 µg/mL
E. coli AG100A; read-out: MIC of OFX in presence of the efflux inhibitor
  MIC: 0.015 µg/mL
E. coli AG100A; read-out: MIC of OXA in presence of the efflux inhibitor
  MIC: 2 µg/mL
E. coli AG100A; read-out: MIC of TET in presence of the efflux inhibitor
  MIC: 0.125 µg/mL
